According to US20230399312A1, “SUBSTITUTED PYRIMIDINES AND METHODS OF USE” (THERAVANCE BIOPHARMA R&D IP, LLC, priority 2020, published 2023):
pKi: −log10 of the molar value.

Legend:
[1] = target: T1, recombinant human ALK5 (TGF-βR1) protein (Homo sapiens, UniProt P36897); test: Biochemical ALK5 (TGF-βR1) assay to measure pKi (LANCE Ultra ULight kinase assay); details: apparent pKi, converted from pIC50 by Cheng-Prusoff
T1 construct: purchased Life Technologies PR9075A
T1 sequence (P36897 34-503): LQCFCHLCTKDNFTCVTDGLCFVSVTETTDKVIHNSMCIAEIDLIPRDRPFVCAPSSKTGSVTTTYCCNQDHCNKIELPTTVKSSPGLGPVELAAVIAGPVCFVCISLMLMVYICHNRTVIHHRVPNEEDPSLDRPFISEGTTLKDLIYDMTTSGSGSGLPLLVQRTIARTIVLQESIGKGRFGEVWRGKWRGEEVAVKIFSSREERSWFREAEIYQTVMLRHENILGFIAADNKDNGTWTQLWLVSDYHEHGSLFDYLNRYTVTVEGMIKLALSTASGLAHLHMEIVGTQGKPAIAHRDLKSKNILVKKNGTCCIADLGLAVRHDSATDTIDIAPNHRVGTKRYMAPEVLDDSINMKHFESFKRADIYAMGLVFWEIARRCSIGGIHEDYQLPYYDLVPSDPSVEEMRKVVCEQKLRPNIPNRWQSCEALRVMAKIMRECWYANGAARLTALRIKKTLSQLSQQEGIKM
Method in brief: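 Europium TR-FRET kinase assay: the enzyme is exposed to compound for 60 min at room temperature, and reaction with ATP runs 60 min at 37 °C. Percent inhibition relative to DMSO and SD-208 controls gives pIC50, which is converted to pKi.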

[2] = system: TGF-β-stimulated SMAD3 phosphorylation in BEAS-2B cells; test: Cellular ALK5 potency assay, inhibition of TGF-β stimulated pSMAD3 formation in BEAS-2B cells; assay type: cell-based; details: Homo sapiens, pSMAD3, TGF-β 10 ng/mL, read-out: BEAS2B pIC50 (converted)
Method in brief: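 Read-out is AlphaLISA detection of phospho-SMAD3 in lysates of BEAS-2B human lung epithelial cells. Cells are exposed to compound for 1 hour, then to 10 ng/mL TGF-β (final) for 30 minutes. Values are pIC50 from concentration–response curves.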

| SMILES | pKi [1] | IC50 [2] [nM] |
| --- | --- | --- |
| CNC1CCN(c2ccc(Nc3nccc(Nc4ccnc(-c5ccccc5F)n4)n3)cc2)CC1 [Compound 90, N4-[2-(2-fluorophenyl)pyrimidin-4-yl]-N2-[4-[4-(methylamino)-1-piperidyl]phenyl]pyrimidine-2,4-diamine] | 8.50 to 9.40 | 25.1 to 158 |
| Cc1cccc(-c2nccc(Nc3ccnc(Nc4ccc(S(=O)(=O)N5CCN(C(=O)NC(C)C)CC5)cc4)n3)n2)n1 [Compound 107, N-isopropyl-4-[4-[[4-[[2-(6-methyl-2-pyridyl)pyrimidin-4-yl]amino]pyrimidin-2-yl]amino]phenyl]sulfonyl-piperazine-1-carboxamide] | 8.50 to 9.40 | 200 to 1260 |
| Cc1cccc(-c2nccc(Nc3ccnc(Nc4ccc(CN5CCN(C(C)(C)C)CC5)cc4)n3)n2)n1 [Compound 109, N2-[4-[(4-tert-butylpiperazin-1-yl)methyl]phenyl]-N4-[2-(6-methyl-2-pyridyl)pyrimidin-4-yl]pyrimidine-2,4-diamine] | 9.50 to 10.40 | 25.1 to 158 |
| Cc1cccc(-c2nccc(Nc3ccnc(Nc4ccc(NC(=O)N5CCN(C(C)C)CC5)cc4)n3)n2)n1 [Compound 110, 4-isopropyl-N-[4-[[4-[[2-(6-methyl-2-pyridyl)pyrimidin-4-yl]amino]pyrimidin-2-yl]amino]phenyl]piperazine-1-carboxamide] | 9.50 to 10.40 | 25.1 to 158 |
| Cc1cccc(-c2nccc(Nc3ccnc(Nc4ccc(F)c(CN5CCNCC5)c4)n3)n2)n1 [Compound 111, N2-[4-fluoro-3-(piperazin-1-ylmethyl)phenyl]-N4-[2-(6-methyl-2-pyridyl)pyrimidin-4-yl]pyrimidine-2,4-diamine] | 9.50 to 10.40 | 25.1 to 158 |
| Cc1cccc(-c2nccc(Nc3ccnc(Nc4ccc(CN5CCCC(C(=O)N6CCNCC6)C5)cc4)n3)n2)n1 (stereo not shown) [Compound 112, [1-[[4-[[4-[[2-(6-methyl-2-pyridyl)pyrimidin-4-yl]amino]pyrimidin-2-yl]amino]phenyl]methyl]-3-piperidyl]-piperazin-1-yl-methanone] | 9.50 to 10.40 | 25.1 to 158 |
| CC[C@H](C)OC(=O)C1CN(c2ccc(Nc3nccc(Nc4ccnc(-c5cccc(C)n5)n4)n3)cc2)CCN1 (stereo partly drawn) [Compound 113, [(1S)-1-methylpropyl] 4-[4-[[4-[[2-(6-methyl-2-pyridyl)pyrimidin-4-yl]amino]pyrimidin-2-yl]amino]phenyl]piperazine-2-carboxylate] | 9.50 to 10.40 | 25.1 to 158 |
| Cc1cccc(-c2nccc(Nc3ccnc(Nc4ccc(C5CCNCC5)cn4)n3)n2)n1 [Compound 114, N4-[2-(6-methyl-2-pyridyl)pyrimidin-4-yl]-N2-[5-(4-piperidyl)-2-pyridyl]pyrimidine-2,4-diamine] | 8.50 to 9.40 | 200 to 1260 |
| Cc1cccc(-c2nccc(Nc3ccnc(Nc4ccc(C(=O)N5CCNCC5)s4)n3)n2)n1 [Compound 115, [5-[[4-[[2-(6-methyl-2-pyridyl)pyrimidin-4-yl]amino]pyrimidin-2-yl]amino]-2-thienyl]-piperazin-1-yl-methanone] | 9.50 to 10.40 | 25.1 to 158 |
| Cc1cccc(-c2nccc(Nc3ccnc(Nc4ccc(N(C)[C@H]5CCNC5)cc4)n3)n2)n1 [Compound 116, N4-[2-(6-methyl-2-pyridyl)pyrimidin-4-yl]-N2-[4-[methyl-[(3S)-pyrrolidin-3-yl]amino]phenyl]pyrimidine-2,4-diamine] | 9.50 to 10.40 | 25.1 to 158 |
| Cc1cccc(-c2nccc(Nc3ccnc(Nc4cccc(NCC5CNC5)c4)n3)n2)n1 [Compound 118, N2-[3-(azetidin-3-ylmethylamino)phenyl]-N4-[2-(6-methyl-2-pyridyl)pyrimidin-4-yl]pyrimidine-2,4-diamine] | 9.50 to 10.40 | 25.1 to 158 |
| Cc1cccc(-c2nccc(Nc3ccnc(Nc4ccc(S(N)(=O)=O)cn4)n3)n2)n1 [Compound 119, 6-[[4-[[2-(6-methyl-2-pyridyl)pyrimidin-4-yl]amino]pyrimidin-2-yl]amino]pyridine-3-sulfonamide] | 7.50 to 8.40 | 25.1 to 158 |

Second part, led by results:

| pKi [1] | SMILES | IC50 [2] [nM] |
| --- | --- | --- |
| 9.50 to 10.40 | Cc1cccc(-c2nccc(Nc3ccnc(Nc4ccc(C(=O)NCC5CNC5)cc4)n3)n2)n1 [Compound 92, N-(azetidin-3-ylmethyl)-4-[[4-[[2-(6-methyl-2-pyridyl)pyrimidin-4-yl]amino]pyrimidin-2-yl]amino]benzamide] | ≤ 20 |
| 9.50 to 10.40 | Cc1cccc(-c2nccc(Nc3ccnc(Nc4ccc(NS(=O)(=O)N5CCNCC5)cc4)n3)n2)n1 [Compound 93, N-[4-[[4-[[2-(6-methyl-2-pyridyl)pyrimidin-4-yl]amino]pyrimidin-2-yl]amino]phenyl]piperazine-1-sulfonamide] | 200 to 1260 |
| ≥ 10.50 | Cc1cccc(-c2nccc(Nc3ccnc(Nc4csc(CN5CCNCC5)c4)n3)n2)n1 [Compound 94, N4-(2-(6-methylpyridin-2-yl)pyrimidin-4-yl)-N2-(5-(piperazin-1-ylmethyl)thiophen-3-yl)pyrimidine-2,4-diamine] | ≤ 20 |
| 9.50 to 10.40 | Cc1cccc(-c2nccc(Nc3ccnc(Nc4ccc(N5CCNCC5)c(CC(=O)O)c4)n3)n2)n1 [Compound 95, 2-[5-[[4-[[2-(6-methyl-2-pyridyl)pyrimidin-4-yl]amino]pyrimidin-2-yl]amino]-2-piperazin-1-yl-phenyl]acetic acid] | 200 to 1260 |
| 9.50 to 10.40 | Cc1cccc(-c2nccc(Nc3ccnc(Nc4csc(C(=O)OCC5CNC5)c4)n3)n2)n1 [Compound 96, azetidin-3-ylmethyl 4-((4-((2-(6-methylpyridin-2-yl)pyrimidin-4-yl)amino)pyrimidin-2-yl)amino)thiophene-2-carboxylate] | 25.1 to 158 |
| 9.50 to 10.40 | Cc1cccc(-c2nccc(Nc3ccnc(Nc4ccc(CN5CC(C(=O)O[C@H]6CCN(C)C6)C5)cc4)n3)n2)n1 [Compound 97, [(3S)-1-methylpyrrolidin-3-yl] 1-[[4-[[4-[[2-(6-methyl-2-pyridyl)pyrimidin-4-yl]amino]pyrimidin-2-yl]amino]phenyl]methyl] azetidine-3-carboxylate] | 25.1 to 158 |
| 9.50 to 10.40 | Cc1cccc(-c2nccc(Nc3ccnc(Nc4ccc(N5CC(N)C5)cc4)n3)n2)n1 [Compound 98, N2-[4-(3-aminoazetidin-1-yl)phenyl]-N4-[2-(6-methyl-2-pyridyl)pyrimidin-4-yl]pyrimidine-2,4-diamine] | 25.1 to 158 |
| ≥ 10.50 | Cc1cccc(-c2nccc(Nc3ccnc(Nc4ccc(CN5CC(C)(CO)C5)cc4)n3)n2)n1 [Compound 99, [3-methyl-1-[[4-[[4-[[2-(6-methyl-2-pyridyl)pyrimidin-4-yl]amino]pyrimidin-2-yl]amino]phenyl]methyl]azetidin-3-yl]methanol] | 25.1 to 158 |
| 9.50 to 10.40 | Cc1cccc(-c2nccc(Nc3ccnc(Nc4ccc(C(=O)OCC5CNC5)s4)n3)n2)n1 [Compound 100, azetidin-3-ylmethyl 5-[[4-[[2-(6-methyl-2-pyridyl)pyrimidin-4-yl]amino]pyrimidin-2-yl]amino]thiophene-2-carboxylate] | 25.1 to 158 |
| 9.50 to 10.40 | Cc1cccc(-c2nccc(Nc3ccnc(Nc4ccc(N5CCC(C(=O)OC6CCNC6)CC5)cc4)n3)n2)n1 (stereo not shown) [Compound 101, pyrrolidin-3-yl 1-[4-[[4-[[2-(6-methyl-2-pyridyl)pyrimidin-4-yl]amino]pyrimidin-2-yl]amino]phenyl]piperidine-4-carboxylate] | 25.1 to 158 |
| 9.50 to 10.40 | Cc1cccc(-c2nccc(Nc3ccnc(Nc4ccc(N5CCN(CC6CCNC6)CC5)cc4)n3)n2)n1 (stereo not shown) [Compound 102, N4-[2-(6-methyl-2-pyridyl)pyrimidin-4-yl]-N2-[4-[4-(pyrrolidin-3-ylmethyl)piperazin-1-yl]phenyl]pyrimidine-2,4-diamine] | 25.1 to 158 |
| 9.50 to 10.40 | Cc1cccc(-c2nccc(Nc3ccnc(Nc4ccc(CN5CCSCC5)cc4)n3)n2)n1 [Compound 104, N4-[2-(6-methyl-2-pyridyl)pyrimidin-4-yl]-N2-[4-(thiomorpholinomethyl)phenyl] pyrimidine-2,4-diamine] | 25.1 to 158 |
| 9.50 to 10.40 | Cc1cccc(-c2nccc(Nc3ccnc(Nc4ccc(NS(=O)(=O)CC5CCCNC5)cc4)n3)n2)n1 (stereo not shown) [Compound 106, N-(4-((4-((2-(6-methylpyridin-2-yl)pyrimidin-4-yl)amino)pyrimidin-2-yl)amino)phenyl)-1-(piperidin-3-yl)methanesulfonamide] | 25.1 to 158 |
| 9.50 to 10.40 | Cc1cccc(-c2nccc(Nc3ccnc(Nc4ccc(S(N)(=O)=O)cc4)n3)n2)n1 [Compound 108, 4-((4-((2-(6-methylpyridin-2-yl)pyrimidin-4-yl)amino)pyrimidin-2-yl)amino)benzenesulfonamide] | 25.1 to 158 |
